Patent publication US20240294551A1 (AMGEN INC., priority 2022, published 2024)
Where two headings read alike, the source gives them in different places.

Legend:
[1] = test system: Phosphorylation of ERK1/2 in AsPC-1 cells; experiment: Phospho-ERK1/2 MSD Assay; assay type: cell-based, human; conditions: read-out: 2 h p-ERK (AsPC-1 cells), IC50
Outline: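 Read-out: MSD electrochemiluminescent detection of phosphorylated ERK1/2 in whole-cell lysates, fitted to a 4-parameter logistic curve for IC50. Prior to lysis, AsPC-1 cells (25,000 per well) received a 2 h compound dose-response at 37 °C.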

[2] = test system: SW620 cells; experiment: SW620 CTG Assay (CellTiter-Glo cell viability); assay type: cell-based, human; conditions: SW620, 72 h, third value of the cell, read-out: G12D/C/V Cell Proliferation CTG (72 h) SW620
Procedure: AsPC-1 and SW620 CTG Assay Protocols
AsPC-1 (human pancreatic adenocarcinoma; ATCC CRL-1682) or SW620 (human colon adenocarcinoma; ATCC CCL-227) cells were cultured in RPMI 1640 medium containing 10% fetal bovine serum and 1× penicillin/streptomycin/L-glutamine. Cells were seeded in 384-well plates at a density of 3.33E+04 cells/mL and incubated at 37° C., 5% CO2, overnight. Serially-diluted compound or DMSO was added to the cells, and plates were incubated at 37° C., 5% CO2 for 72 h. Cell viability was measured using a CellTiter-Glo® Luminescent Cell Viability Assay kit (Promega) according to the manufacturer's protocol. The luminescence signal of treated samples was normalized to DMSO control, and data were analyzed using a 4-parameter logistic model to calculate IC50 values.

[3] = biological target: GDP-bound KRAS protein (aa 1-169), containing both G12D and C118A amino acid substitutions (Homo sapiens (Human), UniProt P01116, C118A/G12D); experiment: KRAS G12D Coupled Nucleotide Exchange Assay; assay type: biochemical; conditions: read-out: KRAS G12D Coupled Exchange IC50
[4] = test system: MIA PaCa-2 cells; experiment: MIA PaCa-2 CTG Assay (CellTiter-Glo cell viability); assay type: cell-based, human; conditions: Mia PaCa-2, 72 h, second value of the cell, read-out: G12D/C/V Cell Proliferation CTG (72 h) Mia PaCa-2
Outline: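 Human pancreatic carcinoma cells in RPMI 1640 with 10% FBS, seeded at 1.67E+04 cells/mL and left overnight, were treated with serially diluted compound for 72 h at 37° C, 5% CO2. Viability was read by CellTiter-Glo luminescence normalized to DMSO; IC50 came from a 4-parameter logistic fit.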

[5] = test system: AsPC-1 cells; experiment: AsPC-1 CTG Assay (CellTiter-Glo cell viability); assay type: cell-based, human; conditions: AsPC-1, 72 h, first value of the cell, read-out: G12D/C/V Cell Proliferation CTG (72 h) AsPC-1
Outline: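 Human pancreatic AsPC-1 or colon SW620 cells in RPMI 1640 with 10% FBS, seeded overnight, then exposed to serially diluted compound for 72 h at 37 °C. CellTiter-Glo luminescence normalized to DMSO control; IC50 from a 4-parameter logistic model.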

[6] = biological target: His-tagged KRAS G12D protein (Homo sapiens (Human), UniProt P01116, G12D); experiment: KRAS G12D TR-FRET Assay; assay type: binding; conditions: read-out: KRAS G12D Binding IC50
Outline: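 His-tagged KRAS G12D (diluted to 20 nM in pH 7.4 HEPES buffer with 10 mM MgCl2 and 10 μM GDP) was preincubated with titrated compound for 30 min at room temperature. Biotinylated KRPep-2d peptide (diluted to 20 nM) was then added for 1 h, and displacement was monitored by TR-FRET.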

GDP-bound KRAS protein (aa 1-169), containing both G12D and C118A amino acid substitutions, sequence (P01116 other isoform, or with tags, fused parts or gaps G12D/C118A): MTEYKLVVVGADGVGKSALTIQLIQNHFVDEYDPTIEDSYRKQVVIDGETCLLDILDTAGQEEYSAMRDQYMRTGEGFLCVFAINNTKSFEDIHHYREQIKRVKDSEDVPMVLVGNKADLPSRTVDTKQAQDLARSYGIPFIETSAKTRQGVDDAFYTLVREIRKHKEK
His-tagged KRAS G12D protein, sequence (P01116 other isoform, or with tags, fused parts or gaps G12D): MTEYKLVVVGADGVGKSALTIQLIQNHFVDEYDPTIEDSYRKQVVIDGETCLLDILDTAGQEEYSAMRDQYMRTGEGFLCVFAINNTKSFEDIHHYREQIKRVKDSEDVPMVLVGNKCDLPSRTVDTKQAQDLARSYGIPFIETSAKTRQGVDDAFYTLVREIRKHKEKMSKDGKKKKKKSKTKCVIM

| IC50 ([1]; Homo sapiens, ASPC1, 2 h) | IC50 ([2]; Homo sapiens, SW-620) | IC50 [3] | IC50 ([4]; Homo sapiens) | IC50 ([5]; Homo sapiens, ASPC1, 72 h) | IC50 [6] | IC50 ([1]; 2 h) | IC50 [2] | IC50 [4] | IC50 [5] | SMILES |
| --- | --- | --- | --- | --- | --- | --- | --- | --- | --- | --- |
| 13 nM | 38.7 nM | 2 nM | 70 nM | 200 nM | 4 nM |  |  |  |  | Fc1c2ncc3c(nc(OC[C@@]45CCCN4C[C@H](F)C5)nc13)N1CCC[C@@](F)(COCCCCc3c(Cl)cc4[nH]ncc4c3-2)C1 [Example 151, (17S)-9-chloro-17,30-difluoro-24-(((2R,7aS)-2-fluorotetrahydro-1H-pyrrolo[1,2-a]pyrrol-7a(5H)-yl)methoxy)-15-oxa-5,6,21,23,25,29-hexaazahexacyclo[24.3.1.1~17,21~.0~2,10~.0~3,7~.0~22,27~]hentriaconta-1(30),2,4,7,9,22,24,26,28-nonaene] |
| 16.3 nM | 39 nM | 3 nM | 100 nM | 178 nM | 3 nM |  |  |  |  | O=C1OCCCc2c(Cl)cc3[nH]ncc3c2-c2ncc3c(nc(OC[C@@]45CCCN4C[C@H](F)C5)nc3c2F)N2CC[C@H]3CCN1[C@H]3C2 [Example 177, (28S,32R)-18-chloro-33-fluoro-4-(((2R,7aS)-2-fluorotetrahydro-1H-pyrrolo[1,2-a]pyrrol-7a(5H)-yl)methoxy)-23-oxa-1,3,5,9,14,15,25-heptaazaheptacyclo[23.5.2.1~6,10~.0~2,7~.0~11,19~.0~12,16~.0~28,32~]tritriaconta-2,4,6,8,10(33),11,13,16,18-nonaen-24-one] |
| 4 nM | 10 nM | 2 nM | 20 nM | 80 nM | 3 nM |  |  |  |  | Cc1cc2[nH]ncc2c2c1[C@H]1C[C@H]1COC(=O)O[C@@H]1CCCN(C1)c1nc(OC[C@@]34CCCN3C[C@H](F)C4)nc3c(F)c-2ncc13 [Example 110] |
| 21.9 nM | 80 nM | 2 nM | 140 nM | 230 nM | 3 nM |  |  |  |  | Fc1cc2[nH]ncc2c2c1CCCCOC[C@H]1CCCCN(C1)c1nc(OC[C@@]34CCCN3C[C@H](F)C4)nc3c(F)c-2ncc13 [Example 240, (26S)-18,32-difluoro-4-(((2R,7aS)-2-fluorotetrahydro-1H-pyrrolo[1,2-a]pyrrol-7a(5H)-yl)methoxy)-24-oxa-1,3,5,9,14,15-hexaazahexacyclo[24.4.1.1~6, 10~.0~2,7~.0~11,19~.0~12,16~]dotriaconta-2,4,6(32),7,9,11,13,16,18-nonaene] |
| 4.2 nM | 6 nM | 3 nM | 7 nM | 36 nM | 5 nM |  |  |  |  | O=C1OCCCc2c(Cl)cc3[nH]ncc3c2-c2ncc3c(nc(OC[C@@]45CCCN4C[C@H](F)C5)nc3c2F)N2CCOC[C@](CF)(C2)O1 [Example 311, (26S)-18-chloro-32-fluoro-26-(fluoromethyl)-4-(((2R,7aS)-2-fluorotetrahydro-1H-pyrrolo[1,2-a]pyrrol-7a(5H)-yl)methoxy)-23,25,28-trioxa-1,3,5,9,14,15-hexaazahexacyclo[24.4.1.1~6,10~.0~2,7~.0~11,19~.0~12,16~]dotriaconta-2,4,6(32),7,9,11,13,16,18-nonaen-24-one] |
| 6.7 nM | 10 nM | 3 nM | 13 nM | 54 nM | 4 nM |  |  |  |  | O=C1OCCc2c(Cl)cc3[nH]ncc3c2-c2ncc3c(nc(OC[C@@]45CCCN4C[C@H](F)C5)nc3c2F)N2CCOC[C@]3(C2)C[C@H](C3)O1 [Example 316, (1R,3R)-10-chloro-33-fluoro-24-(((2R,7aS)-2-fluorotetrahydro-1H-pyrrolo[1,2-a]pyrrol-7a(5H)-yl)methoxy)-4,6,30-trioxa-13,14,19,23,25,27-hexaazaheptacyclo[25.4.1.1~1,3~.1~18,22~.0~9,17~.0~12,16~.0~21,26~]tetratriaconta-9,11,14,16,18(33),19,21,23,25-nonaen-5-one] |
|  |  | 2 nM |  |  | 4 nM | 3.2 nM | 8 nM | 26 nM | 40 nM | Fc1c2ncc3c(nc(OC[C@@]45CCCN4C[C@H](F)C5)nc13)N1CCC[C@]3(C1)C[C@H](C3)OCCCCc1c(Cl)cc3[nH]ncc3c1-2 [Example 260, (1S,3R)-10-Chloro-32-fluoro-24-(((2R,7aS)-2-fluorotetrahydro-1H-pyrrolo[1,2-a]pyrrol-7a(5H)-yl)methoxy)-4-oxa-13,14,19,23,25,27-hexaazaheptacyclo[25.3.1.1˜1,3˜.1˜18,22˜.0˜9,17˜.0˜12,16˜.0˜21,26˜]tritriaconta-9,11,14,16,18(32),19,21,23,25-nonaene bis(2,2,2-trifluoroacetate)] |
| 6 nM | 20.2 nM | 1 nM | 20 nM | 120 nM | 2 nM |  |  |  |  | Fc1c2ncc3c(nc(OC[C@@]45CCCN4C[C@H](F)C5)nc13)N1CCCCC(COCCCCc3c(Cl)cc4[nH]ncc4c3-2)C1 (stereo partly drawn) [Example 141] |

| SMILES | IC50 ([1]; Homo sapiens, ASPC1, 2 h) | IC50 ([2]; Homo sapiens, SW-620) | IC50 [3] | IC50 ([4]; Homo sapiens) | IC50 ([5]; Homo sapiens, ASPC1, 72 h) | IC50 [6] | IC50 ([1]; 2 h) | IC50 [2] | IC50 [4] | IC50 [5] |
| --- | --- | --- | --- | --- | --- | --- | --- | --- | --- | --- |
| Cc1cc2[nH]ncc2c2c1CCCCOC[C@@H]1CCCN(C1)c1nc(OC[C@@]34CCCN3C[C@H](F)C4)nc3c(F)c-2ncc13 [Example 129, (17R)-30-Fluoro-24-(((2R,7aS)-2-fluorotetrahydro-1H-pyrrolo[1,2-a]pyrrol-7a(5H)-yl)methoxy)-9-methyl-15-oxa-5,6,21,23,25,29-hexaazahexacyclo[24.3.1.1˜17,21˜.0˜2,10˜.0˜3,7˜.0˜22,27˜]hentriaconta-1(30),2,4,7,9,22,24,26,28-nonaene bis(2,2,2-trifluoroacetate)] | 20 nM | 67.4 nM | 2 nM | 90 nM | 170 nM | 4 nM |  |  |  |  |
| O=C1CCCCc2c(Cl)cc3[nH]ncc3c2-c2ncc3c(nc(OC[C@@]45CCCN4C[C@H](F)C5)nc3c2F)N2CCCC[C@H](C2)N1 [Example 65, (26R)-18-Chloro-32-fluoro-4-(((2R,7aS)-2-fluorotetrahydro-1H-pyrrolo[1,2-a]pyrrol-7a(5H)-yl)methoxy)-1,3,5,9,14,15,25-heptaazahexacyclo[24.4.1.1˜6,10˜.0˜2,7˜.0˜11,19˜.0˜12,16˜]dotriaconta-2,4,6,8,10(32),11,13,16,18-nonaen-24-one bis(2,2,2-trifluoroacetate)] | 24 nM | 52 nM | 2 nM | 160 nM | 320 nM | 6 nM |  |  |  |  |
| O=C1OC[C@@H]2C[C@@H]2c2c(Cl)cc3[nH]ncc3c2-c2ncc3c(nc(OC[C@@]45CCCN4C[C@H](F)C5)nc3c2F)N2CCC[C@H](C2)O1 [Example 45, (11S,13R,18R)-9-Chloro-31-fluoro-25-(((2R,7aS)-2-fluorotetrahydro-1H-pyrrolo[1,2-a]pyrrol-7a(5H)-yl)methoxy)-15,17-dioxa-5,6,22,24,26,30-hexaazaheptacyclo[25.3.1.1˜18,22˜.0˜2,10˜.0˜3,7˜.0˜11,13˜.0˜23,28˜]dotriaconta-1(31),2,4,7,9,23,25,27,29-nonaen-16-one bis(2,2,2-trifluoroacetate)] | 1 nM | 10 nM | 1 nM | 10 nM | 50 nM | 2 nM |  |  |  |  |
